Test results as given in US10160867B2, “Benzoxaborole-containing coating resistant to cellulose-supportable fungus” (THE PENN STATE RESEARCH FOUNDATION, priority 2015, dated 2018).
In brackets after ≈: the same amount, converted by molar mass.

Key:
Alternaria alternata = assay: Painted discs with or without UV irradiation before inoculation (defacement); format: cell-based; parameters: key: rating 10 = 0% defacement to 0 = 91-100% defacement; conditions: +100 μg/mL in Olympic Home latex paint
Protocol: In a separate study, painted filter paper discs were irradiated with UV light from a 30 watt bulb for 2 hours and then inoculated with Alternaria alternata spores (“+UV” in the table below), or were inoculated without prior UV irradiation (“no UV” in the Table 4). The painted filter papers were incubated as discussed elsewhere herein, evaluated at 13 and 21 days post-inoculation for defacement by fungal growth and compared to similar painted filter paper discs that were not irradiated prior to inoculation.
Samples were evaluated at regular intervals. The intensity of the fungal growth was rated by estimating the percentage of surface defacement using the following ratings: 10: 0% defacement; 9=1-10% defacement; 8=11-20% defacement; 7=21-30% defacement; 6=31-40% defacement; 5=41-50% defacement; 4=51-60% defacement; 3=61-70% defacement; 2=71-80% defacement; 1=81-90% defacement; and 0=91-100% defacement. A grid that divides the circular area into 20 equal sections as shown in FIG. 1 was used to estimate the extent (percent defacement) of fungal growth.

[1] = +UV (30 watt bulb, 2 hours, before inoculation), 13 days
[2] = +UV (30 watt bulb, 2 hours, before inoculation), 21 days

Row | SMILES | Average Defacement ± standard deviation for 3 replicates (Alternaria alternata; [1]) | Average Defacement ± standard deviation for 3 replicates (Alternaria alternata; [2]) | Average Defacement ± standard deviation for 3 replicates (Alternaria alternata; no UV, 13 days) | Average Defacement ± standard deviation for 3 replicates (Alternaria alternata; no UV, 21 days) | solubility (Solubility in water)
1 | OB1OCc2cc(F)ccc21 [Compound B9, 5-Fluoro-1,3-dihydro-2,1-benzoxaborol-1-ol] | 10.0 ± 0.0 | 8.3 ± 2.1 | 10.0 ± 0.0 | 9.0 ± 0.0 | 0.8 mg/mL (≈ 5.27 mM)
2 | CCCCNC(=O)OCC#CI [IPBC, 3-Iodo-2-propynylbutylcarbamate] | 9.7 ± 0.6 | 6.0 ± 4.4 | 8.3 ± 2.1 | 4.0 ± 4.0 | 
